Data published in patent publication US20200383985A1, “Inhibitors of Protease Activated Receptor-2” (Endosome Therapeutics, Inc., priority 2017, published 2020).

Experiments:
PKC and cAMP = experiment: FRET assays of PKC and cAMP in HEK293 cells; type: cell-based
Description: I-343, but not SCH530348, inhibited trypsin stimulation of PKC and cAMP, which thus depend on PAR2 (FIGS. 19G and H). […] The sustained plasma membrane cAMP response to trypsin support the existence of mechanisms that allow persistent PAR2 signaling, which warrant further investigation.
HEK293 cells were cultured in DMEM supplemented with 10% (v/v) FBS (5% CO2, 37° C.). When necessary serum restriction was achieved by replacing culture medium with DMEM containing 0.5% FBS overnight. Cells were transiently transfected using polyethylenimine (PEI) (1:6 DNA:PEI).
HEK293 cells were transiently transfected in 10 cm dishes (˜50% confluency) with Flag-PAR2-HA (2.5 μg) and FRET biosensors CytoEKAR or NucEKAR (2.5 μg) (Jensen, D. D. et al., Sci Transl Med. 2017, 9(392), eaal3447; Thomsen, A. R. B., et al., Cell 2016, 166(4): 907-919). In experiments examining the role of dynamin, cells were transfected with FLAG-PAR2-HA (1.25 μg), FRET biosensor (1.25 μg) and either DynWT-HA, DynK44E-HA or pcDNA3.1 (2.5 μg). At 24 h after transfection, cells were seeded on ViewPlate-96 well plates (PerkinElmer). FRET was assessed 72 h post-transfection, following overnight serum restriction. Cells were equilibrated in HBSS-HEPES (30 min, 37° C.). FRET was measured using a PHERAstar FSX Microplate Reader (BMG LabTech). For CFP/YFP emission ratio analysis, cells were sequentially excited using a CFP filter (425/10 nm) with emission measured using YFP (550/50 nm) and CFP (490/20 nm) filters. FRET was measured before and after stimulation with trypsin (10 nM), NE (100 nM), CS (100 nM), phorbol 12,13-dibutyrate, PDBu (positive control, 1 μM), or vehicle. FRET ratios (donor/acceptor intensity for EKAR, or acceptor/donor intensity for CKAR and Epac) were calculated and corrected to baseline and vehicle treatments to determine ligand-induced FRET (ΔFRET). Treatment effects were determined by comparison of area under the curve values. Signalling inhibitors were dissolved in HBSS-HEPES. PS2 and PS2 inact were dissolved in HBSS-HEPES+1% DMSO. […]

PKC and ERK activity = experiment: FRET assays of compartmentalized PKC and ERK in DRG neurons; type: cell-based, rat
Description: To determine whether trypsin causes PAR2-dependent activation of PKC and ERK, which respectively mediate initial and persistent trypsin-induced hyperexcitability of nociceptors, genetically-encoded Förster Resonance Energy Transfer (FRET) biosensors were expressed in neurons. […] Trypsin (10 or 100 nM) activated PKC at the plasma membrane but not in the cytosol (FIG. 4E-G), and activated ERK in the cytosol and nucleus (FIG. 4H-J). The PAR2 antagonist I-343 (10 μM) inhibited trypsin-induced activation of PKC and ERK, whereas the PAR1 antagonist SCH530348 (100 nM) had no effect (FIG. 4F, I). At the end of experiments, neurons were challenged with the positive controls phorbol 12,13-dibutyrate (PDBu) for EKAR biosensors or PDBu plus phosphatase inhibitor mixture-2 for CKAR biosensors, to ensure that the response of the biosensor was not saturated.
DRG were collected from C57BL/6 mice and Sprague-Dawley rats (all levels). DRG were incubated with collagenase IV (2 mg/ml) and dispase II (1 mg/ml) for 30 min (mice) and 45 min (rats) at 37° C. DRG were dispersed by trituration with a fire-polished Pasteur pipette. Dissociated neurons were transfected with mPAR2-GFP (1 μg), the FRET biosensors CytoEKAR, NucEKAR, pmCKAR or CytoCKAR (all […]), or with the BRET biosensors PAR2-RLuc8 (125 ng) and βARR2-FYP (475 ng) using the Lonza 4D-Nucleofector X unit according to the manufacturer's instructions. Neurons were plated on laminin- (0.004 mg/ml) and poly-L-Lysine- (0.1 mg/ml) coated glass coverslips for confocal microscopy, on ViewPlate-96 plates (PerkinElmer) for FRET assays, or on CulturPlates (PerkinElmer) for BRET assays. Neurons were maintained in Dulbecco's modified Eagle medium (DMEM) containing 10% fetal bovine serum (FBS), antibiotic-antimitotic, and N1 supplement for 48 h before study.
Rat DRG neurons expressing FRET biosensors were serum-restricted (0.5% FBS overnight), and equilibrated in HBSS-HEPES (10 mM HEPES, pH 7.4, 30 min, 37° C.). FRET was analyzed using an Operetta CLS High-Content Imaging System (PerkinElmer) or an INCell Analyzer 2000 G E Healthcare Life Sciences). For CFP/YFP emission ratio analysis, cells were sequentially excited using a CFP filter (410-430 nm) with emission measured using YFP (520-560 nm) and CFP (460-500 nm) filters. Cells were imaged at 1 or 2 min intervals. Baseline was measured, neurons were challenged with trypsin (10 or 100 nM) or vehicle, and responses recorded for a further 30 min. Neurons were then challenged with phorbol 12,13-dibutyrate (PDBu, 200 nM, 10 min) for EKAR biosensors or PDBu (200 nM) and phosphatase inhibitor cocktail-2 (SigmaAldrich, 10 min) for CKAR biosensors. Data were analyzed using Harmony 4.1 or Image J 1.51 software. Images taken were aligned, cells were selected based on diameter, and fluorescence intensity was calculated for both FRET and CFP channels. Background intensity was subtracted and the FRET ratio was determined as the change in the FRET/donor (EKAR) or donor/FRET (CKAR) emission ratio relative to the baseline for each cell (F/Fo). Cells with >5% changes in F/F0 after PDBu stimulation were selected for analysis. Neurons were incubated with I-343 (10 μM), SCH530348 (100 nM) or vehicle (30 min, 37° C. preincubation and inclusion throughout).

[1] = trypsin 10 or 100 nM, rat DRG neurons

| Compound | trypsin stimulation of PKC and cAMP (PKC and cAMP; HEK293 cells) | trypsin-induced activation of PKC and ERK (PKC and ERK activity; I-343 10 μM, SCH530348 100 nM) | PKC activation and cAMP generation at the plasma membrane and in the cytosol (PKC and cAMP; trypsin 10 nM) | ERK activity in the cytosol and nucleus (PKC and ERK activity; [1]) | PKC activity at the plasma membrane (PKC and ERK activity; [1]) | PKC activity in the cytosol (PKC and ERK activity; [1]) |
| --- | --- | --- | --- | --- | --- | --- |
| Cc1nc(C(=O)N2CCN(C(=O)c3cn4nc(-c5ccc(F)cc5)cc(C(C)(C)C)c4n3)C(C)(C)C2)n[nH]1 [Compound I-343, (8-(tert-butyl)-6-(4-fluorophenyl)imidazo[1,2-b]pyridazin-2-yl)(2,2-dimethyl-4-(5-methyl-1H-1,2,4-triazole-3-carbonyl)piperazin-1-yl)methanone] | inhibited | inhibited | – | – | – | – |
| trypsin | – | – | rapid and sustained activation | activated | activated | not |
